Test results from article PMC12169614, “Exploring Long Arm Amide-Linked Side Chains in the Design of Antifungal Azole Inhibitors of Sterol 14α-Demethylase (CYP51)” (Journal of Medicinal Chemistry, 2025).

Assays:
Y2301 OE ScCYP51 Y140F = test: MIC80 determination, strain Y2301; format: cell-based, S. cerevisiae; conditions: Saccharomyces cerevisiae; for MIC80: 48 h, pH 6.8; for MIC: read-out: MIC (nM) S. cerevisiae Y2301
Method: (§1) Cells were seeded at an OD600 nm of 0.005 (1.5 × 10^4 CFU), and the plates were incubated at 30 °C with shaking at 200 rpm for 48 h for S. cerevisiae strains and 24 h for C. albicans . Cell growth was assessed by measuring the OD600 nm using a Synergy 2 multimode plate reader (BioTek Instruments, VT, USA). Each MIC80 was determined using triplicate measurements for pools of 4 clones of each strain in three separate experiments.

[1] = tested on: Y525 MFS efflux pump CaMDR1a overexpressed; test: Agarose (disk) diffusion assay, strain Y525; format: cell-based, S. cerevisiae; conditions: 10 nmol/disk, 30 °C, 48 h
From the text: (§2) Final compounds were screened as racemic mixtures using agarose diffusion assays to visualize their inhibitory activity against a panel of recombinant S. cerevisiae strains i.e., S. cerevisiae strains expressing control levels of wild-type CYP51 (ScCYP51), overexpressed wild-type ScCYP51, overexpressed azole-resistant ScCYP51 Y140F/H mutations and overexpressed C. albicans efflux pumps MDR1a or CDR1B (Figure and Table S1).
(§3) The susceptibilities of S. cerevisiae and Candida species strains to azole compounds were observed as zones of growth inhibition in agarose diffusion assays. The disk diffusion assays were carried out as described by Keniya et al. Complete supplement mixture (CSM) agarose (0.6% agarose [wt/vol]; 20 mL of synthetic defined medium (SD); pH 6.8–7) was solidified in a rectangular Petri dish which was overlaid with CSM agarose (0.6% [wt/vol]; 5 mL; pH 6.8–7) seeded with yeast cells at an optical density (OD600) of 0.008 (118,000 cells per 1 mL of overlay). Azole compounds (10 nmol/disk) were applied to sterile BBL paper disks (Becton Dickinson Co., Sparks, MD) and placed on solidified overlays. Cell growth was assessed after incubation at 30 °C for 48 h.

[2] = tested on: Y2513 ScCYP51 Y140H mutant; test: Agarose (disk) diffusion assay, strain Y2513; format: cell-based, S. cerevisiae; conditions: 10 nmol/disk, 30 °C, 48 h
From the text: as §2, §3

Y1 = test: MIC80 determination, C. albicans clinical isolate Y1; format: cell-based; conditions: Candida albicans, pH 7, 24 h
Method: as §1

Y2459 OE CaCYP51 CaCpr = test: MIC80 determination, strain Y2459; format: cell-based, S. cerevisiae; conditions: for MIC80: Saccharomyces cerevisiae, 48 h, pH 6.8; for MIC: read-out: MIC (nM) C. albicans model Y2459
Method: as §1

Y2411 Endog. ScCYP51 = test: MIC80 determination, strain Y2411; format: cell-based, S. cerevisiae; conditions: Saccharomyces cerevisiae; for MIC80: strain Y2411 Endog. ScCYP51, SD pH 6.8, 30 °C, 48 h; for MIC: supplement csv, read-out: MIC (nM) S. cerevisiae Y2411
Method: as §1

Y433 OE CgCDR1 = test: MIC80 determination, strain Y433; format: cell-based, S. cerevisiae; conditions: Saccharomyces cerevisiae
Method: as §1

[3] = tested on: Y2301 ScCYP51 Y140F mutant; test: Agarose (disk) diffusion assay, strain Y2301; format: cell-based, S. cerevisiae; conditions: 10 nmol/disk, 30 °C, 48 h
From the text: as §2, §3

Y610 FHB1 = test: MIC80 determination, C. albicans clinical isolate Y610 FHB1; format: cell-based; conditions: Candida albicans; C. albicans clinical isolate Y610 FHB1 (weakly expresses CaCDR1); pH 7, 24 h
Method: as §1

Y525 OE CaMDR1a = test: MIC80 determination, strain Y525; format: cell-based, S. cerevisiae; conditions: for MIC80: Saccharomyces cerevisiae, 48 h, pH 6.8; for MIC: read-out: MIC (nM) C. albicans model Y525
Method: as §1

Y570 OE CaCDR1B = test: MIC80 determination, strain Y570; format: cell-based, S. cerevisiae; conditions: for MIC: Candida albicans, read-out: MIC (nM) C. albicans model Y570; for MIC80: Saccharomyces cerevisiae, 48 h, pH 6.8
Method: as §1

[4] = tested on: Y570 ABC efflux pump CaCDR1B overexpressed; test: Agarose (disk) diffusion assay, strain Y570; format: cell-based, S. cerevisiae; conditions: 10 nmol/disk, 30 °C, 48 h
From the text: as §2, §3

Y2721 OE CpCYP51 = test: MIC80 determination, strain Y2721; format: cell-based, S. cerevisiae; conditions: for MIC80: Saccharomyces cerevisiae; for MIC: read-out: MIC (nM) C. parapsilosis model Y2721
Method: as §1

Y2651 OE CYP51 F5 RaCPR = test: MIC80 determination, strain Y2651; format: cell-based, S. cerevisiae; conditions: Saccharomyces cerevisiae
Method: as §1

Y2300 OE ScCYP51 = test: MIC80 determination, strain Y2300; format: cell-based, S. cerevisiae; conditions: Saccharomyces cerevisiae; for MIC80: 48 h, pH 6.8; for MIC: read-out: MIC (nM) S. cerevisiae Y2300
Method: as §1

Y2716 OE CpCYP51 Y132F = test: MIC80 determination, strain Y2716; format: cell-based, S. cerevisiae; conditions: for increase in resistance owing to the CpCYP51 Y132F mutation: MIC80 Y2716 versus Y2721; for MIC80: Saccharomyces cerevisiae
Method: as §1

[5] = tested on: Y2746 OE AfCYP51A AfCPR AfERG6; test: MIC80 determination, strain Y2746; format: cell-based, S. cerevisiae; conditions: Saccharomyces cerevisiae
Method: as §1

[6] = tested on: Y2747 OE AfCYP51B AfCPR AfERG6; test: MIC80 determination, strain Y2747; format: cell-based, S. cerevisiae; conditions: for MIC: Aspergillus fumigatus, read-out: MIC (nM) A. fumigatus model Y2747; for MIC80: Saccharomyces cerevisiae
Method: as §1

Y71 SC5314 = test: MIC80 determination, C. albicans clinical isolate Y71 SC5314; format: cell-based; conditions: Candida albicans; for MIC: SC5314, supplement csv; for MIC80: C. albicans clinical isolate Y71 SC5314, pH 7, 24 h
Method: as §1

Y2649 OE CYP51 F1 RaCPR = test: MIC80 determination, strain Y2649; format: cell-based, S. cerevisiae; conditions: for MIC: Rhizopus arrhizus, read-out: MIC (nM) R. arrhizus model Y2649; for MIC80: Saccharomyces cerevisiae
Method: as §1

Y2513 OE ScCYP51 Y140H = test: MIC80 determination, strain Y2513; format: cell-based, S. cerevisiae; conditions: Saccharomyces cerevisiae; for MIC80: 48 h, pH 6.8; for MIC: read-out: MIC (nM) S. cerevisiae Y2513
Method: as §1

2711 CnCYP51 OE CnCPR = test: MIC80 determination, strain 2711; format: cell-based, S. cerevisiae; conditions: for MIC80: Saccharomyces cerevisiae; for MIC: read-out: MIC (nM) C. neoformans model Y2711
Method: as §1

Y2374 OE CgCYP51 = test: MIC80 determination, strain Y2374; format: cell-based, S. cerevisiae; conditions: Saccharomyces cerevisiae; for MIC: read-out: MIC (nM) C. glabrate model Y2374
Method: as §1

Y611 FHB3 = test: MIC80 determination, C. albicans clinical isolate Y611 FHB3; format: cell-based; conditions: Candida albicans, 24 h, pH 7
Method: as §1

[7] = tested on: Y2300 ScCYP51 overexpressed; test: Agarose (disk) diffusion assay, strain Y2300; format: cell-based, S. cerevisiae; conditions: 10 nmol/disk, 30 °C, 48 h
From the text: as §2, §3

[8] = tested on: Y2411 azole sensitive control strain; test: Agarose (disk) diffusion assay, strain Y2411; format: cell-based, S. cerevisiae; conditions: 10 nmol/disk, 30 °C, 48 h
From the text: as §2, §3

Structure (SMILES) | MIC80 (Y2301 OE ScCYP51 Y140F) [µM] | MIC (Y2301 OE ScCYP51 Y140F) [nM] | zone of growth inhibition (inhibitory activity in words) [1] | zone of growth inhibition (inhibitory activity in words) [2] | MIC80 (Y1) [µM] | MIC80 (Y2459 OE CaCYP51 CaCpr) [µM] | MIC (Y2459 OE CaCYP51 CaCpr) [nM] | MIC80 (Y2411 Endog. ScCYP51) [µM] | MIC (Y2411 Endog. ScCYP51) [nM] | MIC80 (Y433 OE CgCDR1) [µM] | zone of growth inhibition (inhibitory activity in words) [3] | MIC80 (Y610 FHB1) [µM] | MIC80 (Y525 OE CaMDR1a) [µM] | MIC (Y525 OE CaMDR1a) [nM] | MIC (Y570 OE CaCDR1B) [nM] | MIC80 (Y570 OE CaCDR1B) [µM] | zone of growth inhibition (inhibitory activity in words) [4] | MIC80 (Y2721 OE CpCYP51) [µM] | MIC (Y2721 OE CpCYP51) [nM] | zone of growth inhibition (inhibitory activity in words) [7] | also measured
O=C(NCC(O)(Cn1cncn1)c1ccc(F)cc1F)c1ccc2cc(F)ccc2c1 (centres unmarked) [Compound 14, N-(2-(2,4-Difluorophenyl)-2-hydroxy-3-(1H-1,2,4-triazol-1-yl)propyl)-6-fluoro-2-naphthamide] | 0.326 ± 0.048 | 326 ± 48 | reduced effect | showed activity | 0.01 | 0.054 ± 0.021 | 54 ± 21 | 0.015 ± 0.003 | 15 ± 3 | 9.2 ± 0.707 | showed activity | 0.075 | > 1 | > 1000 | 33500 | 33.5 | no effect | 0.024 | 24 |  | MIC80 (Y2651 OE CYP51 F5 RaCPR): 3.5 µM; MIC80 (Y2300 OE ScCYP51): 0.048 ± 0.004 µM; MIC (Y2300 OE ScCYP51): 48 ± 4 nM; increase in resistance owing to the CpCYP51 Y132F mutation (Y2716 OE CpCYP51 Y132F): > 19 fold; MIC80 (Y2716 OE CpCYP51 Y132F): 1 µM; MIC80 [5]: > 15 µM; MIC [6]: 300 nM; MIC80 [6]: 0.3 µM; MIC (Y71 SC5314): 18 nM; MIC80 (Y71 SC5314): 0.018 µM; MIC (Y2649 OE CYP51 F1 RaCPR): 83 nM; MIC80 (Y2649 OE CYP51 F1 RaCPR): 0.083 µM; MIC80 (Y2513 OE ScCYP51 Y140H): 0.632 ± 0.123 µM; MIC (Y2513 OE ScCYP51 Y140H): 632 ± 123 nM; MIC80 (2711 CnCYP51 OE CnCPR): 0.005 µM; MIC (2711 CnCYP51 OE CnCPR): 5 nM; MIC80 (Y2374 OE CgCYP51): 0.047 ± 0.006 µM; MIC (Y2374 OE CgCYP51): 47 ± 6 nM; MIC80 (Y611 FHB3): 2.4 µM
O=C(NCC(O)(Cn1cncn1)c1ccc(F)cc1F)c1cccc(-c2ccc(OC(F)(F)F)cc2)c1 (centres unmarked) [Compound 24, N-(2-(2,4-Difluorophenyl)-2-hydroxy-3-(1H-1,2,4-triazol-1-yl)propyl)-4’-(trifluoromethoxy)-[1,1’-biphenyl]-3-carboxamide] | 0.419 ± 0.083 | 419 ± 83 |  | significantly greater resistance | 0.12 | 0.116 ± 0.061 | 116 ± 61 | 0.03 | 30 | 11.8 | significantly greater resistance | 0.37 ± 0.042 | 0.43 | 430 | 17000 | 17 |  | 0.094 | 94 |  | MIC80 (Y2651 OE CYP51 F5 RaCPR): 1.4 µM; MIC80 (Y2300 OE ScCYP51): 0.163 ± 0.061 µM; MIC (Y2300 OE ScCYP51): 163 ± 61 nM; increase in resistance owing to the CpCYP51 Y132F mutation (Y2716 OE CpCYP51 Y132F): > 19 fold; MIC80 (Y2716 OE CpCYP51 Y132F): 1.75 µM; MIC80 [5]: 2.7 µM; MIC [6]: 50 nM; MIC80 [6]: 0.05 µM; MIC (Y71 SC5314): 85 nM; MIC80 (Y71 SC5314): 0.085 µM; MIC (Y2649 OE CYP51 F1 RaCPR): 16 nM; MIC80 (Y2649 OE CYP51 F1 RaCPR): 0.016 µM; MIC80 (Y2513 OE ScCYP51 Y140H): 0.719 ± 0.001 µM; MIC (Y2513 OE ScCYP51 Y140H): 719 ± 1 nM; MIC80 (2711 CnCYP51 OE CnCPR): 0.002 µM; MIC (2711 CnCYP51 OE CnCPR): 2 nM; MIC80 (Y2374 OE CgCYP51): 0.168 µM; MIC (Y2374 OE CgCYP51): 168 nM; MIC80 (Y611 FHB3): 3.4 µM
O=C(Nc1ccc(CNC(=O)C(Cn2cncn2)c2ccc(F)cc2F)cc1)c1ccc(Cl)cc1 (centres unmarked) [Compound 44, 4-Chloro-N-(4-((2-(2,4-difluorophenyl)-3-(1H-1,2,4-triazol-1-yl)propanamido)methyl)phenyl)benzamide] |  |  | retained some inhibitory activity | reduced activity |  |  |  |  |  |  | reduced activity |  |  |  |  |  | not the CaCDR1B expressing strain |  |  | strongly inhibited | zone of growth inhibition (inhibitory activity in words) [8]: strongly inhibited
O=C(Nc1ccc(CNC(=O)C(Cn2cncn2)c2ccc(F)cc2F)cc1)c1cccnc1 (centres unmarked) [Compound 47, N-(4-((2-(2,4-Difluorophenyl)-3-(1H-1,2,4-triazol-1-yl)propanamido)methyl)phenyl)nicotinamide] |  |  |  |  |  |  |  |  |  |  |  |  |  |  |  |  |  |  |  | did not inhibit | zone of growth inhibition (inhibitory activity in words) [8]: poorly inhibited
O=C(Nc1ccc(CNC(=O)C(Cn2cncn2)c2ccc(F)cc2F)cc1)c1cnccn1 (centres unmarked) [Compound 48, N-(4-((2-(2,4-Difluorophenyl)-3-(1H-1,2,4-triazol-1-yl)propanamido)methyl)phenyl)pyrazine-2-carboxamide] |  |  |  |  |  |  |  |  |  |  |  |  |  |  |  |  |  |  |  | lower inhibitory activity | 
